Earlier results, collected in patent publication US20180338982A1, “Cooperative Medication Combination Systems” (priority 2017, published 2018).

Details: in vivo

Compound: CCC(C)(C)C(=O)O[C@H]1C[C@@H](C)C=C2C=C[C@H](C)[C@H](CC[C@@H]3C[C@@H](O)CC(=O)O3)[C@H]21 [Simvastatin]
- Half-life: 2 h
